Experimental data: ChEMBL document CHEMBL1136649, “Synthesis and antibacterial study of 10, 15, 20-triphenyl-5-(4-hydroxy-3-(trimethylammonium)methyl)phenylporphyrin as models for combination of porphyrin and alkylating agent” (2003)
Converted amounts (≈) assume the structure as drawn.

These compounds were tested on Staphylococcus aureus (assay: Minimum inhibitory concentration required against Staphylococcus aureus ATCC 25923).
Type: functional
Work on `C[N+](C)(C)Cc1cc(-c2c3nc(c(-c4ccccc4)c4ccc([nH]4)c(-c4ccccc4)c4nc(c(-c5ccccc5)c5ccc2[nH]5)C=C4)C=C3)ccc1O` yielded an MIC of 60 µM.
Compound `CN(C)Cc1cc(-c2c3nc(c(-c4ccccc4)c4ccc([nH]4)c(-c4ccccc4)c4nc(c(-c5ccccc5)c5ccc2[nH]5)C=C4)C=C3)ccc1O` has an MIC of 120 µM (≈ 82.5 µg/mL).
In the case of `COc1ccc(-c2c3nc(c(-c4ccccc4)c4ccc([nH]4)c(-c4ccccc4)c4nc(c(-c5ccccc5)c5ccc2[nH]5)C=C4)C=C3)cc1C[N+](C)(C)C`, the MIC is reported as 240 µM.
